Measurements reported in PMC7346217, “Insight of Polyphenol Oxidase Enzyme Inhibition and Total Polyphenol Recovery from Cocoa Beans” (Antioxidants, 2020).

Each compound was assayed on T1, polyphenol oxidase (PPO) from cocoa beans (assay: spectrophotometric oxidation ([…] nm), Michaelis-Menten nonlinear regression). Details: crude extract of non-treated beans; McIlvaine buffer pH 6.5; 35 °C; substrate 5-200 mM.
T1 construct: native; isoenzyme not identified
Assay type: biochemical, Theobroma cacao

| Km | Compound |
| --- | --- |
| 1450 ± 350 µM | Oc1cc(O)c2c(c1)O[C@H](c1ccc(O)c(O)c1)[C@@H](O)C2 [(+)-catechin] |
| 1260 ± 370 µM | Oc1cc(O)c2c(c1)O[C@H](c1ccc(O)c(O)c1)[C@H](O)C2 [(−)-epicatechin] |

| Compound | Km |
| --- | --- |
| Oc1ccccc1O [catechol] | 610 ± 120 µM |
